The record followed here is patent US20240207650A1, “ULTRASOUND-INDUCED MICROBUBBLE DRUG DELIVERY SYSTEM LOADING STABILIZED HYDROPHOBIC DRUG WITH POLYETHYLENE GLYCOL BASED NONIONIC SURFACTANT AND METHOD OF MANUFACTURING THE SAME” (SAHMYOOK UNIVERSITY INDUSTRY-ACADEMIC COOPERATION FOUNDATION, priority 2022, published 2024).

The test system of the series is U87MG cells. Briefly: Cytotoxic experiment, cell viability with tetrazolium salt derivatives. Format: cell-based. As to conditions: 72 hours, free drug 0.01-100 μM, FIG. 5. How it is done: An experiment is performed to identify cytotoxicity of the manufactured microbubble drug delivery system and the drug delivery system loading the drugs. The experiment is performed after an experimental group manufactured by using the method in Example 1-2 (microbubble drug delivery system loading paclitaxel PTX@MB) and a control group (microbubble without loaded drugs MB) are deaerated to burst bubbles. Each solution is added to U87MG cells to respectively set final concentrations to 10%, 1%, 0.1%, 0.01%, and 0.001% and final concentrations of free paclitaxel are respectively set to 100 μM, 10 μM, 1 μM, 0.1 μM, and 0.01 μM. 5000 cells are grown in each well and cells are cultured for 72 hours. Then, a solution containing a cell culture fluid and tetrazolium salt derivatives are added to measure cell viability and in-vitro cytotoxicity of each material is identified.

As for `CC(=O)O[C@H]1C(=O)[C@@]2(C)[C@H]([C@H](OC(=O)c3ccccc3)[C@]3(O)C[C@H](OC(=O)[C@H](O)[C@@H](NC(=O)c4ccccc4)c4ccccc4)C(C)=C1C3(C)C)[C@]1(OC(C)=O)CO[C@@H]1C[C@@H]2O` [free paclitaxel, Paclitaxel], the “concentration at which cytotoxicity is identified” value was “above 1 μM”.
